Molecules are shown by their SMILES. Non-standard residues stand in square brackets, D forms with d. Residues, ends and D or L forms follow the SMILES beside them. ξ: configuration not given here. *: point of attachment. ξNMe2Val = CC(C)C(C(=O)*)N(C)C; NMeV = CN[CH](C(=O)O)C(C)C; NHBn = c1ccc(CN*)cc1

This test deals with recombinant CpLDH protein (Cryptosporidium parvum, UniProt Q9GT92, F198L/K295E/R251K).
For `CC(=O)/C(=C\c1cccc([N+](=O)[O-])c1)C(=O)Nc1ccccc1C` [NSC634658], the “MEAN CpLDH INHIBITION (%)” value is given as -26.76%. The result for `CCN(CC)C(=S)[S-].[Na+]` [NSC4857] reads -37.64%. The result for `COc1cc2c[n+](C)c3c4cc5c(cc4ccc3c2cc1OC)OCO5.[Cl-]` [NSC146397] reads -1.75%; that for `CN(C)C(=S)/N=c1\ssc(=S)n1Cc1ccccn1` [NSC645617], -28.16%; that for `Cc1c2ccc3ccccc3c2c[n+]2ccccc12.[Cl-]` [NSC28002], -26.04%. The result for `Cc1ccc(NC(=O)C(=O)CC(=O)c2ccccc2)cc1C` [NSC636126] reads -16.52%.

For `Cc1ccc(N=Nc2c(O)ccc3ccccc23)cc1` [NSC106296], the “MEAN CpLDH INHIBITION (%)” value is reported as -44.71%. The result for `Cc1c2ccnc(C(N)=O)c2c(C)c2c1[nH]c1ccccc12.Cl` [NSC335142] reads -27.72%; that for `OCc1ccc(-c2ccc(-c3ccc(CO)s3)o2)s1` [NSC652287], -15.92%. The result for `O=C(NCCCCCCCCNC(=O)c1cccc2ccccc12)c1cccc2ccccc12` [NSC629738] reads -0.22%; that for `Cc1ccc(S(=O)(=O)ON=C2CC(c3ccccc3)N(C)C(c3ccccc3)C2)cc1` (stereo not shown) [NSC351306], -39.05%; that for `O=C(CC(=O)c1ccccc1)CC(O)(c1ccccc1)c1ccccc1` [NSC634232], -33.26%. The result for `CNc1nc(N(C)C)nc(N(C)C)n1` [NSC118742] reads -28.34%; that for `C=CC(=O)N1C/C(=C\c2ccccc2)C(=O)/C(=C/c2ccccc2)C1` [NSC632841], -21.11%. For `CCOC(=O)C1=C(C)NC(=S)NC1c1ccccc1` (stereo not shown) [NSC643910], the “MEAN CpLDH INHIBITION (%)” value is -38.49%. Then `COc1ccc2[nH]c3c(C)c4ccncc4c(C)c3c2c1` [NSC69187], with -16.81%. The result for `Cc1cc2nc(C=C(C(F)(F)F)C(F)(F)F)oc2cc1C` [NSC168415] reads -49.77%; that for `COc1cccc2c1C(=O)c1c(O)c3c(c(O)c1C2=O)C[C@@](O)(C(C)=O)C[C@@H]3O[C@@H]1C[C@@H](N(C)C)[C@@H](O)[C@@H](C)O1` [NSC258812], -2.78%; that for `COc1cc2c3cc1Oc1c(OC)c(OC)cc4c1[C@H](Cc1ccc(cc1)Oc1cc(ccc1O)C[C@H]3N(C)CC2)N(C)CC4` [NSC93135], -27.33%. The result for `O=C(CC1(O)C(=O)Nc2c(Cl)cc(Cl)cc21)c1cccc2ccccc12` (stereo not shown) [NSC635328] reads -47.14%; that for `COC(=O)C1=CC(=O)C(C(=O)Nc2ccc(OC)cc2)C(c2ccccc2)O1` (stereo not shown) [NSC634473], -29.85%.

Turning to `CC1Oc2cc3c(-c4c(O)cc(O)c5c(O)c6c(cc45)OC(C)C(C)C6=O)c(O)cc(O)c3c(O)c2C(=O)C1C` (stereo not shown) [NSC345647], the “MEAN CpLDH INHIBITION (%)” value is given as -176.19%. Then `O=C(ON=C1c2ccccc2C(Br)C(Br)c2ccccc21)c1ccccc1` (stereo not shown) [NSC670140], with -63.78%; and `CCC1CN2CCc3cc(OC)c(OC)cc3C2CC1CC1c2cc(OC)c(OC)cc2CCN1C(=O)C1CCCN1C(=O)OCc1ccccc1` (stereo not shown) [NSC103248], with -105.50%.

In the case of `Nc1ccccc1N` [NSC5354], the “MEAN CpLDH INHIBITION (%)” value is listed as 0%.

Consider `O=c1cccccc1O` [NSC89303], for which the “MEAN CpLDH INHIBITION (%)” value is recorded as -7.26%. The result for `O=C1N[C@@H]2C(=C[C@H](O)[C@@H](O)[C@H]2O)c2cc3c(c(O)c21)OCO3` [NSC266535] reads -18.25%; that for `CC(=O)SC(SC(C)=O)SC(C)=O` [NSC637833], -64.71%; that for `CC(C)C(NC(=O)C(C(C)C)N(C)C)C(=O)N(C)C(C(=O)N1CCCC1C(=O)N1CCCC1C(=O)NCc1ccccc1)C(C)C.Cl` (stereo not shown) [NSC669356] (ξNMe2Val-V[NMeV]PP-NHBn; configuration not given here), -120.43%.

For the compound `C=C(NC(=O)C(=C)NC(=O)c1csc(C2=N[C@@H]3c4csc(n4)[C@H]4NC(=O)c5csc(n5)[C@H]([C@](C)(O)[C@@H](C)O)NC(=O)[C@H]5CSC(=N5)/C(=C/C)NC(=O)[C@H]([C@@H](C)O)NC(=O)c5csc(n5)[C@]3(CC2)NC(=O)[C@H](C)NC(=O)C(=C)NC(=O)C(=C)NC(=O)[C@H](C(C)C)N[C@@H]2C=Cc3c([C@H](C)O)cc(nc3[C@H]2O)C(=O)O[C@@H]4C)n1)C(N)=O` [NSC285116], the “MEAN CpLDH INHIBITION (%)” value was -2.26%. Then `COc1nc(C(Cl)(Cl)Cl)c(Cl)c(OC)c1Cl` [NSC338720], with 0.02%. Then `C=C1C(=O)O[C@H]2/C=C(/C)C(=O)C[C@@H]3OC(C)(C)O[C@@]3(C)C[C@H](OC(=O)/C(C)=C\C)[C@H]12` [NSC329696], with -30.73%. With `Nc1ncnc2c1ncn2C1OC(CO)C(O)C1O` (stereo not shown) [NSC70422], the “MEAN CpLDH INHIBITION (%)” value is on record as -12.00%. As to `Cc1c2ccncc2cc2c1[nH]c1ccccc12` [NSC87206], the “MEAN CpLDH INHIBITION (%)” value is given as -25.74%.

With `O=C(CCc1ccccc1)On1nnc2ccccc2c1=O` [NSC630374], the “MEAN CpLDH INHIBITION (%)” value is on record as -20.24%. Regarding `CC(=O)C1=C(O)C2(O)C(=O)c3c(c(C)c4ccc(C)c(O)c4c3O)CC2C(N)C1=O.CCCCCCCCCCCCOS(=O)(=O)O` (stereo not shown) [NSC73495], the “MEAN CpLDH INHIBITION (%)” value is on record as -99.50%. Then `O=S(=O)(c1cccc(N=C=S)c1)c1cccc(N=C=S)c1` [NSC140911], with -0.44%; and `Oc1cc2c3c(c1)c1cc4c(cc1c[n+]3CC2)OCO4.[Cl-]` [NSC338259], with -17.29%; and `C[C@H](CN1CC(=O)NC(=O)C1)N1CC(=O)NC(=O)C1` [NSC169779], with -13.00%. The result for `COC(=O)c1cc(-c2c[nH]cc2C(=O)OCc2ccccc2)cn1S(=O)(=O)c1ccc(C)cc1` [NSC679527] reads -27.66%; that for `OCCNCCN1CCN(CCCN2c3ccccc3Sc3ccc(C(F)(F)F)cc32)CC1` [NSC169676], -69.84%. Then `CN(C)c1ccc(/C=c2/sc3nc(=O)c(-c4ccccc4NC(=O)C(F)(F)F)nn3c2=O)cc1` [NSC623095], with -151.18%. As to `CCOC(=O)C(CC(C)C)NC(=O)C(Cc1ccc(N(CCCl)CCCl)cc1)NC(C)=O` (stereo not shown) [NSC167780], the “MEAN CpLDH INHIBITION (%)” value is listed as -51.52%.

For `COc1ccc(-c2csc(=[N+]3CCCCC3)s2)cc1` [NSC302358], the “MEAN CpLDH INHIBITION (%)” value came out at 0.36%. The result for `CCCCCCCCCCCCCCCCOCC(O)CO` (stereo not shown) [NSC59269] reads 0.04%. Then `O=C(CC1(O)C(=O)Nc2c(Cl)ccc(Cl)c21)c1ccc(Cl)cc1` (stereo not shown) [NSC635437], with -7.08%; and `COc1cc2cc3c4cc(OC)c(OC)cc4cc[n+]3c(C)c2cc1OC.O=C([O-])CS(=O)(=O)O` [NSC154890], with -11.41%; and `OCCNCN(CNCCO)c1nc(N(CNCCO)CNCCO)nc(N(CNCCO)CNCCO)n1` [NSC653000], with -58.42%.

On to `Cc1c(C(=O)C/C(=N\O)C(=O)Nc2cc(Cl)c(Cl)cc2Cl)[n+](=O)c2ccccc2n1[O-]` [NSC635544], for which the “MEAN CpLDH INHIBITION (%)” value is listed as -233.40%. Then `N#CC(=S)Nc1ccc(Cl)c(Cl)c1` [NSC379531], with -50.91%; and `CC(=O)[O][Pb]([O]C(C)=O)([c]1ccccc1)[c]1ccccc1` [NSC173046], with -141.42%; and `CC1CCC2(OC1)OC1CC3C4CC=C5CC(OC6OC(CO)C(OC7OC(C)C(OC8OC(C)C(O)C(O)C8O)C(O)C7O)C(O)C6OC6OC(C)C(O)C(O)C6O)CCC5(C)C4CCC3(C)C1C2C` (stereo not shown) [NSC306864], with -7.27%. The result for `CC(C)(C)C1CCC2(CC1)CCN(CCCN1CCOCC1)CC2` [NSC90829] reads -2.93%; that for `O=[N+]([O-])c1ccc2oc(=Nc3ccccc3)c(Nc3ccccc3)nc2c1` [NSC671424], -1.46%; that for `O=C([O-])c1cc(I)cc(I)c1[OH2+].O=C([O-])c1cc(I)cc(I)c1[OH2+].[Mn+2]` [NSC619907], -115.80%. Regarding `CC(C)(C)CC(C)(C)NCC(O)COc1ccc(C(C)(C)c2ccc(OCC(O)CNC(C)(C)CC(C)(C)C)cc2)cc1.Cl` (stereo not shown) [NSC145366], the “MEAN CpLDH INHIBITION (%)” value is recorded as -111.71%. Then `O=C(Nc1ccc(Sc2ccc(N=Nc3c(O)c(S(=O)(=O)O)cc4cc(S(=O)(=O)O)ccc34)cc2)cc1)c1ccc(N=Nc2c(O)ccc3c(S(=O)(=O)O)cc(S(=O)(=O)O)cc23)cc1` [NSC76027], with -85.04%; and `CN(C)CCOC1(Cc2ccc(Cl)cc2Cl)CCC(C(C)(C)C)CC1.Cl` (stereo not shown) [NSC670224], with -73.95%. The result for `N#CC1=C(N)Oc2c(ccc3cccnc23)C1c1ccccc1` (stereo not shown) [NSC631583] reads -36.52%; that for `Cc1ccc(C2NC(=O)c3ccccc3N2)s1` (stereo not shown) [NSC175634], -31.59%; that for `C[C@@H](N)C(=O)NC(CO)C(O)C(N)C=O.Cl` (stereo partly shown) [NSC278619], -43.32%.

Consider `C(=N\NC1=NCCN1)/c1c2ccccc2c(/C=N/NC2=NCCN2)c2ccccc12` [NSC337766], for which the “MEAN CpLDH INHIBITION (%)” value was -53.76%.

In the case of `COc1ccc(/C=C2\CCCc3ccccc3C2=O)cc1` [NSC687667], the “MEAN CpLDH INHIBITION (%)” value is -11.60%. The result for `COc1ccc(NC(=O)CC(=O)N2N=C(C)C(N=Nc3ccc(S(=O)(=O)c4ccc(N=NC5C(=O)N(C(=O)CC(=O)Nc6ccc(OC)cc6)N=C5C)cc4)cc3)C2=O)cc1` (stereo not shown) [NSC677392] reads -119.10%.
